Data set [1] is described as follows: Partition coefficient (log P) between n-octanol and PBS by UV-Vis absorption. In kind it is physicochemical. As for the experimental part: (§1) All of the new prepared phenothiazine-pyridine compounds are deep blue solid, the basic physiochemical properties are measured by UV-Visible and fluorescence spectrometry. […] The maximum absorption is about 650 nm in ethanol, and they are varied based on the compound structure. The fluorescence emission is about 680 nm when excited at 610 nm. All of these compounds have relatively high quantum yield, they are promising diagnostic and imaging agents. The lipophilicity is determined by the partition coefficient (log P), which can be obtained by measuring the UV-Vis absorption of the compound in phosphate buffer saline (PBS) before and after the partition equilibrium between n-octanol and PBS solution, and then calculated following the equation of: Log p=Log [(Abefore/Aafter)−1]. Wherein Abefore and Aafter are the absorption values in PBS solution before and after partition.

The test system of data set [2] is normal fibroblast WI38 cells. Kind of data set: Dark toxicity, MTT assay. In kind it is cell-based. Conditions: Homo sapiens, WI-38, 24 h, read-out: IC50 dark toxicity. As for the experimental part: Cell lines and culture conditions: A549, HT29, MCF-7, MDA-MB-231 cell lines were maintained in RPMI1640 supplemented with fetal bovine serum (10%) and penicillin-streptomycin solution (1%), and WI38 cells were maintained in DMEM supplemented with fetal bovine serum (10%) and penicillin-streptomycin solution (1%). Approximately 1×10^4 (for A549, HT29, MCF-7, MDA-MB-231) or 1.5×10^4 (for WI38) cells per well were seeded in 96-well plate and incubated overnight light at 37° C. in a humidified atmosphere with 5% CO2.
Dark toxicity: Cells were incubated with different concentrations of photosensitive drug for 24 h in dark, and the cell viabilities were determined by MTT assay
The IC50 values (50% inhibitory concentration) of the prepared phenothiazine-pyridine compounds 8, 14, 15, 16, 17, 18, 19, 20, 21, 22, 23, and 24 to normal fibroblast cell line WI38 were measured by MTT assay.

Data set [3] can be described thus: UV-Visible and fluorescence spectrometry. The note with it: for λmax(nm)in EtOH: UV-Vis absorption maximum in EtOH; for Log ε: UV-Vis in EtOH; for λEm (nm): fluorescence emission, excited at 610 nm. The data set is classed as physicochemical. As for the experimental part:
as §1

SMILES strings stand for the structures. pIC50: −log10 of the molar value. A value given as a limit tells only on which side of the number the result lay.

For `CCCCCCCNc1cc2[s+]c3cc(N(CC)CC)ccc3nc2c2ccc(C)nc12` [Compound 16, 9-(diethylamino)-5-(heptylamino)-3-methylpyrido[3,2-a]phenothiazin-7-ium chloride], in data set [1], the logP was found to be 1.44. Moreover, the pIC50 in data set [2] is less than 5.00. Also, in data set [3], the “λmax(nm)in EtOH” value was found to be 651 nm, the “Log ε” value came to 4.89 and the “λEm (nm)” value came to 684 nm.

With `CCCCCNc1cc2[s+]c3cc(N(CC)CC)ccc3nc2c2ccc(C)nc12` [Compound 15, 9-(diethylamino)-3-methyl-5-(pentylamino)pyrido[3,2-a]phenothiazin-7-ium chloride], in data set [1], the logP was found to be 1.4. In addition, the pIC50 in data set [2] is less than 5.00. Besides, in data set [3], the “λmax(nm)in EtOH” value stood at 651 nm, the “Log ε” value is on record as 4.91 and the “λEm (nm)” value was 684 nm.

The compound `CCN(CC)c1ccc2nc3c(cc(NCCCN)c4nc(C)ccc43)[s+]c2c1` [Compound 21, 5-(3-aminopropylamino)-9-(diethylamino)-3-methylpyrido[3,2-a]phenothiazin-7-ium chloride] registered a logP in data set [1] of 0.64. Besides, in data set [2], the pIC50 was less than 5.00. In addition, in data set [3], the “λmax(nm)in EtOH” value was 668 nm, the “Log ε” value was determined as 4.82 and the “λEm (nm)” value is given as 686 nm.

For the compound `CCCN(CCC)c1cc2[s+]c3cc(N(CC)CC)ccc3nc2c2ccc(C)nc12` [Compound 19, 9-(diethylamino)-5-(dipropylamino)-3-methylpyrido[3,2-a]phenothiazin-7-ium chloride], the logP in data set [1] came to 1.42. Further, the pIC50 in data set [2] is 5.03. Also, in data set [3], the “λmax(nm)in EtOH” value is recorded as 675 nm, the “Log ε” value is listed as 4.67 and the “λEm (nm)” value came out at 684 nm.

In the case of `CCN(CC)c1ccc2nc3c(cc(NC)c4nc(C)ccc43)[s+]c2c1` [Compound 18, 9-(diethylamino)-3-methyl-5-(methylamino)pyrido[3,2-a]phenothiazin-7-ium chloride], the logP in data set [1] worked out at 1.31. Moreover, in data set [2], the pIC50 was 5.30. Besides, in data set [3], the “λmax(nm)in EtOH” value turned out to be 649 nm, the “Log ε” value is 4.70 and the “λEm (nm)” value is 683 nm.

`CCCCCN(CCCCC)c1cc2[s+]c3cc(N(CC)CC)ccc3nc2c2ccc(C)nc12` [Compound 20, 9-(diethylamino)-5-(dipentylamino)-3-methylpyrido[3,2-a]phenothiazin-7-ium chloride] showed a logP in data set [1] of 1.48. Also, the pIC50 in data set [2] is less than 5.00. In addition, in data set [3], the “λmax(nm)in EtOH” value turned out to be 676 nm, the “Log ε” value is given as 4.89 and the “λEm (nm)” value turned out to be 700 nm.

In data set [1], `CCCCCCCCCCNc1cc2[s+]c3cc(N(CC)CC)ccc3nc2c2ccc(C)nc12` [Compound 17, 5-(decylamino)-9-(diethylamino)-3-methylpyrido[3,2-a]phenothiazin-7-ium chloride] displayed a logP of 2.49. Moreover, the pIC50 in data set [2] is 5.15. Moreover, in data set [3], the “λmax(nm)in EtOH” value was determined as 651 nm, the “Log ε” value stood at 4.89 and the “λEm (nm)” value is 684 nm.

The term logP denotes the decadic logarithm of the partition coefficient of the neutral form, usually between octanol and water. The low end stands for lower lipophilicity, the high end for higher lipophilicity. As a reminder, the pIC50 is −log10 of the IC50, conventionally taken in molar units.

The record behind these values is patent publication US10189862B2, “Phenothiazine-pyridine compounds and uses thereof” (The Chinese University of Hong Kong, priority 2016, dated 2019).
